The target of assay [1] is T1, BIR3-mediated Caspase-9 inhibition (UniProt Q9R0I6).
T1 construct: Nothing is printed for this assay
Nature of the assay: Caspase-9 rescue assay (relief of BIR3-mediated Caspase-9 inhibition). Type of assay: biochemical, human Caspase-9; Rat or Chicken BIR3. To be noted: average EC50, substrate Ac-LEHD-amc, pH 6.5. The method, then:
Additionally the compounds and compositions can be evaluated for their ability to achieve relief of BIR3-mediated Caspase-9 inhibition by measuring Caspase-9 reactivation. The fluorogenic substrate Ac-LEHD-7-amido-4-methylcoumarin is used in these methods. EC50 values of tested BIR3 inhibitors or Caspase-9 rescuers is calculated from the percentage of Caspase-9 reactivation in the mixtures containing serially diluted concentrations of tested compound. Typically, 10-point curves are generated for such EC50 determination.
Relief of BIR3-mediated Caspase-9 inhibition by BIR3 inhibitors was assayed by measuring Caspase-9 reactivation using the fluorogenic substrate Ac-LEHD-7-amido-4-methylcoumarin. A truncated form of human Caspase-9 that lacks the N-terminal Caspase recruitment domain (EPro-Caspase-9 or p35/p12) was used in the assay. This form of the enzyme has the full catalytic activity and the same substrate specificity as the full-length protein in the Apaf-1/Cytochrome C/dATP/Caspase-9 reconstituted system. Rat or Chicken BIR3 was used in this assay. […] This mixture was incubated for 40 min to allow equilibration at 25° C., and the assay progression was subsequently followed by monitoring the formation of fluorescent 7-amido-4-methylcoumarin over time at 460 nm using an excitation wavelength of 360 nm. […] EC50 values of tested BIR3 inhibitors or Caspase-9 rescuers were calculated from the percentage of Caspase-9 reactivation in the mixtures containing serially diluted concentrations of tested compound.

The next assay has as its target BIR3 domain of rat XIAP (Rattus norvegicus, UniProt Q9R0I6). Put plainly: Fluorescence polarization assay, binding to BIR3 from rat XIAP.

The text below walks through data of patent US20100190688A1, “Tetrapeptide analogs” (priority 2004, published 2010).

The EC50 is the concentration that produces a half-maximal response. A higher EC50 goes with lower potency in that assay.

Sequence of BIR3 domain of rat XIAP (Q9R0I6 241-355): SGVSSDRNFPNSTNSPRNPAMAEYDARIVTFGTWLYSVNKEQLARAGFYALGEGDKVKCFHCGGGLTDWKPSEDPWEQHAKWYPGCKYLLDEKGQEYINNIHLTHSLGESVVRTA
Method for BIR3 domain of rat XIAP: In fluorescence polarization assays a fluorescent probe is used. The binding affinity of compounds to BIR3 is measured by competitive displacement of a fluorescent probe using fluorescence polarization anisotropy. […] In other embodiments, the probe used is 6-(6-Hydroxy-3-oxo-3H-xanthen-9-yl)-N-(5-(2-methylamino-propionylamino)-6-oxo-6-[4-(1,2,3,4-tetrahydro-naphthalen-1-ylcarbamoyl)-thiazolidin-3-yl]-hexyl)-isophthalamic acid.
The binding affinity of compounds provided herein for rat BIR3 was measured by competitive displacement of a fluorescent probe using fluorescence polarization anisotropy. […] Control conditions were set up on each plate and include free probe 1 alone (5 nM), fully bound probe (5 μM BIR3+5 nM probe 1) and binding buffer blank. The-EC50 of binding was computed from a 4-parameter fit of the measured anisotropies using the SoftMax Pro 4.6 software package (Molecular Dynamics, Sunnyvale, Calif.).
Alternatively, probe 1 was substituted with probe 2: 6-(6-Hydroxy-3-oxo-3H-xanthen-9-yl)-N-{5-(2-methylamino-propionylamino)-6-oxo-6-[4-(1,2,3,4-tetrahydro-naphthalen-1-ylcarbamoyl)-thiazolidin-3-yl]-hexyl}-isophthalamic acid, for rat BIR3 and the concentrations of assay components changed. […] Controls were adjusted accordingly.

For `CNC(C)C(=O)NC(C(=O)N1CSCC1C(=O)NC1CCc2ccccc21)C(C)C` (centres unmarked) [3-[3-Methyl-2-(2-methylamino-propionylamino)-butyryl]-thiazolidine-4-carboxylic acid indan-1-ylamide], the 50% effective concentration (EC50) (in assay [1]; on BIR3 domain of rat XIAP) was under 1000 nM each time.
Turning to `CNC(C)C(=O)NC(C(=O)NC(C(=O)NC1CCCc2ccccc21)C1CCCCC1)C(C)C` (centres unmarked) [N-[Cyclohexyl-(1,2,3,4-tetrahydro-naphthalen-1-ylcarbamoyl)-methyl]-3-methyl-2-(2-methylamino-propionylamino)-butyramide], the EC50 (in assay [1]; on BIR3 domain of rat XIAP) was under 1000 nM in each case.
`CNC(C)C(=O)NC(C(=O)NC(CCOCc1ccccc1)C(=O)NC1CCCc2ccccc21)C(C)C` (centres unmarked) [N-[3-Benzyloxy-1-(1,2,3,4-tetrahydro-naphthalen-1-ylcarbamoyl)-propyl]-3-methyl-2-(2-methylamino-propionylamino)-butyramide]: the concentration for a half-maximal effect (EC50) in assay [1] was 1000 to 10000 nM; on BIR3 domain of rat XIAP it was under 1000 nM.
For `CNC(C)C(=O)NC(C(=O)N1Cc2ccccc2CC1C(=O)NC1CCCc2ccccc21)C(C)C` (centres unmarked) [2-[3-Methyl-2-(2-methylamino-propionylamino)-butyryl]-1,2,3,4-tetrahydro-isoquinoline-3-carboxylic acid (1,2,3,4-tetrahydro-naphthalen-1-yl)-amide], in that order: under 1000 nM and under 1000 nM.
Regarding `CNC(C)C(=O)NC(C(=O)NC(CCN)C(=O)NC1CCCc2ccccc21)C(C)C` (centres unmarked) [N-[3-Amino-1-(1,2,3,4-tetrahydro-naphthalen-1-ylcarbamoyl)-propyl]-3-methyl-2-(2-methylamino-propionylamino)-butyramide], the EC50 in assay [1] was 1000 to 10000 nM; at BIR3 domain of rat XIAP, under 1000 nM.
For `CNC(C)C(=O)NC(C(=O)NC(CC(=O)OCc1ccccc1)C(=O)NC1CCCc2ccccc21)C(C)C` (centres unmarked) [3-[3-Methyl-2-(2-methylamino-propionylamino)-butyrylamino]-N-(1,2,3,4-tetrahydro-naphthalen-1-yl)-succinamic acid benzyl ester], the EC50 in assay [1] was 1000 to 10000 nM; at BIR3 domain of rat XIAP, under 1000 nM.
With `CCCCS(=O)(=O)NCCCCC(NC(=O)C(NC(=O)C(C)NC)C(C)C)C(=O)NC1CCCc2ccccc21` (centres unmarked) [6-(Butane-1-sulfonylamino)-2-[3-methyl-2-(2-methylamino-propionylamino)-butyrylamino]-hexanoic acid (1,2,3,4-tetrahydro-naphthalen-1-yl)-amide], the half-maximal effective concentration (EC50) (in assay [1]; on BIR3 domain of rat XIAP) was under 1000 nM in each case.
On to `CN[C@@H](C)C(=O)N[C@H]1CCCC2CC[C@@H](C(=O)N[C@@H]3CCCc4ccccc43)N2C1=O` (some centres unmarked) [6-(2-Methylamino-propionylamino)-5-oxo-octahydro-pyrrolo[1,2-a]azepine-3-carboxylic acid (1,2,3,4-tetrahydro-naphthalen-1-yl)-amide], for which the 50% effective concentration (EC50) (in assay [1]; on BIR3 domain of rat XIAP) was under 1000 nM in each case.
Regarding `CCCNC(C)C(=O)NC(C(=O)N1CCCC1C(=O)NC1CCCc2ccccc21)C(C)(C)C` (centres unmarked) [1-[3,3-Dimethyl-2-(2-propylamino-propionylamino)-butyryl]-pyrrolidine-2-carboxylic acid (1,2,3,4-tetrahydro-naphthalen-1-yl)-amide], the EC50 in assay [1] is 1000 to 10000 nM; on BIR3 domain of rat XIAP it was under 1000 nM.
For the compound `CNC(C)C(=O)NC(C(=O)N1CSCC1C(=O)NC(Cc1ccccc1)Cc1ccccc1)C(C)C` (centres unmarked) [3-[3-Methyl-2-(2-methylamino-propionylamino)-butyryl]-thiazolidine-4-carboxylic acid (1-benzyl-2-phenyl-ethyl)-amide], the EC50 (in assay [1]; on BIR3 domain of rat XIAP) was under 1000 nM throughout.
For the compound `CNC(C)C(=O)NC(C(=O)NC(CCCCNS(=O)(=O)C(F)(F)F)C(=O)NC1CCCc2ccccc21)C(C)C` (centres unmarked) [2-[3-Methyl-2-(2-methylamino-propionylamino)-butyrylamino]-6-trifluoromethanesulfonylamino-hexanoic acid (1,2,3,4-tetrahydro-naphthalen-1-yl)-amide], the results for the concentration giving a half-maximal response (EC50) (in assay [1]; on BIR3 domain of rat XIAP) were over 10000 nM and under 1000 nM, respectively.
`CNC(C)C(=O)NC(C(=O)N1Cc2ccccc2CC1C(=O)NN(c1ccccc1)c1ccccc1)C(C)C` (centres unmarked) [N-{1-[3-N′,N′-Diphenyl-hydrazinocarbonyl)-3,4-dihydro-1H-isoquinoline-2-carbonyl]-2-methyl-propyl}-2-methylamino-propionamide]: the EC50 (in assay [1]; at BIR3 domain of rat XIAP) was over 10000 nM throughout.
As for `CNC(C)C(=O)NC(C(=O)N1CSCC1C(=O)NN(Cc1ccccc1)Cc1ccccc1)C(C)C` (centres unmarked) [N-{1-[4-(N′,N′-Dibenzyl-hydrazinocarbonyl)-thiazolidine-3-carbonyl]-2-methyl-propyl}-2-methylamino-propionamide], the concentration for a half-maximal effect (EC50) (in assay [1]; at BIR3 domain of rat XIAP) was under 1000 nM throughout.
